From BigSolDB 2.1

CCCCCCCCCCCC(=O)O
solubility (mole fraction)
Conditions | in ethanol | in isobutanol | in isopentanol | in methanol | in n-butanol | in n-hexanol | in n-pentanol | in n-propanol
276.17 K | 0.0422 | 0.0659 | 0.0814 | 0.0318 | 0.0646 | 0.0827 | 0.0742 | 0.054
279.16 K | 0.0554 | 0.0817 | 0.1 | 0.0419 | 0.0801 | 0.0991 | 0.0907 | 0.0685
282.16 K | 0.0739 | 0.102 | 0.122 | 0.0555 | 0.0999 | 0.122 | 0.113 | 0.0859
285.15 K | 0.0924 | 0.128 | 0.15 | 0.0723 | 0.123 | 0.151 | 0.137 | 0.108
288.15 K | 0.119 | 0.158 | 0.179 | 0.0942 | 0.151 | 0.183 | 0.167 | 0.135
291.14 K | 0.151 | 0.195 | 0.217 | 0.123 | 0.188 | 0.22 | 0.204 | 0.169
294.14 K | 0.194 | 0.238 | 0.263 | 0.161 | 0.229 | 0.266 | 0.247 | 0.21
297.13 K | 0.244 | 0.289 | 0.315 | 0.208 | 0.283 | 0.322 | 0.301 | 0.261
300.13 K | 0.305 | 0.351 | 0.376 | 0.264 | 0.338 | 0.39 | 0.368 | 0.319
303.12 K | 0.386 | 0.422 | 0.446 | 0.341 | 0.418 | 0.464 | 0.435 | 0.399
306.12 K | 0.482 | 0.514 | 0.537 | 0.433 | 0.51 | 0.549 | 0.53 | 0.488
